Assay results taken from ChEMBL document CHEMBL1126426, “Nucleotidic prodrugs of anti-HIV dideoxynucleosides” (Bioorg Med Chem Lett, 1992).

How the values were obtained:
[1] = The compound was evaluated for its stability in RPMI at pH of 7.2 dose 10 x 10e-3; S - Stable; type: physicochemical; conditions: pH 7.2
[2] = The compound was evaluated for its stability in RPMI containing 10 % of heat-inactivated FCS.; type: physicochemical; conditions: cattle, RPMI culture medium with 10% heat-inactivated FCS
[3] = Kinetic constant in RPMI containing 10 % of heat-inactivated FCS.; type: ADME; conditions: cattle
[4] = The compound was evaluated for its stability in RPMI containing 10 % of FCS.; type: physicochemical; conditions: cattle, RPMI culture medium with 10% FCS
[5] = The compound was evaluated for its stability in CEM extract; S - Stable; type: physicochemical; conditions: human
[6] = Kinetic constant in RPMI containing 10 % of FCS.; type: ADME; conditions: cattle
[7] = test system: CCRF-CEM; experiment: The compound was evaluated for the activity on HIV infected CEM cells.; type: functional; conditions: Homo sapiens, read-out: ED50 (the source's name)

| SMILES | T1/2 [1] | half-life [2] | k [3] | half-life [4] | T1/2 [5] | k [6] | EC50 [7] |
| --- | --- | --- | --- | --- | --- | --- | --- |
| Nc1ccn(C2CCC(COP(=O)(O)OC[C@@H]3CC[C@H](n4ccc(N)nc4=O)O3)O2)c(=O)n1 (some centres undefined) | Stable | 48 h | 0.00024 min⁻¹ | 22 h | Stable | 0.00052 min⁻¹ | 50 nM |
| COP(=O)(OCC1CCC(n2ccc(N)nc2=O)O1)OC[C@@H]1CC[C@H](n2ccc(N)nc2=O)O1 (some centres undefined) | – | – | – | – | – | – | 500 nM |
| Nc1ccn([C@H]2CC[C@@H](CO)O2)c(=O)n1 [ZALCITABINE] | – | – | – | – | – | – | 100 nM |
